Where “and” joins values, the source holds several entries; their conditions need not be identical. Equal values may be shown once.
Assays:
[1] = system: Pmluc-WT; assay: Steady-state kinetics of luciferase reactions (luminometer); assay type: biochemical, Pyrocoelia miyako
Procedure: (§1) 1.5 Bioluminescence characterizations
(§2) Reactions of luciferases, including Photinus pyralis luciferase (Fluc), Phrixothrix hirtus luciferase (SLR), Pyrearinus termitilluminans […]
(§3) mM D-LH 2 analogues, 3 mM ATP, 6 mM MgCl2, and 10 µM luciferase in 0.2 ml of 100 mM HEPES-NaOH pH 8.0. The bioluminescence (BL) emission characteristics were recorded using a microplate reader in a BL mode (Thermo Scientific, Varioskan, LUX multimode). […]
BL of the
(§4) The reactions were initiated by mixing 25 µl of premixed solution of luciferases/D-LH 2 analogues with 125 µl of 3 mM ATP and 6 mM MgCl2 in 100 mM HEPES-NaOH (pH 8.0). The light intensity (relative light unit, RLU) during 0-300 sec was then collected to represent the overall luciferase activity which was further used for calculating kinetic parameters from the Michaelis-Menten equation. […]

[2] = system: Pmluc-N230S (HeLa); assay: Sensitivity of live reporter cell detection (LOD of cell number); assay type: cell-based, human; settings: Pmluc-N230S (HeLa)
[3] = target: Fluc-ApCPP complex (Photinus pyralis, UniProt P08659); assay: biochemical; assay type: binding; settings: ITC, Fluc-ApCCP
[4] = Absorption and fluorescence spectra of luciferins; assay type: physicochemical; settings: 100 mM HEPES pH 8.0, 25 °C
Procedure: 2.6 Spectra of firefly luciferins
spectrophotometer (Agilent technologies, Cary 100 UV Vis, Cary Series UV-Vis Spectrophotometer).
were recorded by a microplate reader (Thermo Scientific, Varioskan, LUX multimode) in fluorescence mode. The reactions of D-LH 2 […]
Supplementary Table S5. […]
[e] ND denotes “not detectable”. […]

[5] = target: T1, Fluc-containing HEK293T crude lysate (Photinus pyralis, UniProt P08659, K549A/L550V/N119G/N50D/S548I); assay: BL assay of crude lysate of HEK293T expressing Fluc; assay type: cell-based; settings: HEK293T crude lysate
T1 construct: expressed in transfected cells; host or cells: HEK293T, transient transfection with pGL4.13 [luc2/SV40]

[6] = target: T2, Fluc (Photinus pyralis, UniProt P08659); assay: Bioluminescence quantum yield measurement; assay type: biochemical
Procedure: as §1, §2
mM D-LH 2 analogues, 3 mM ATP, 6 mM MgCl2, and 10 µM luciferase in 0.2 ml of 100 mM HEPES-NaOH pH 8.0. […]
A reference light source was used for calibrating a sphere spectrometer equipped with a cooled CCD detector.
The absolute responsivity of each luciferase-luciferin reaction was calculated based on a linear standardization between total photon flux measured using the sphere spectrometer equipped with a cooled CCD detector and relative count values measured by a luminometer. Total photons emitted from the bioluminescence reaction of each luciferase-luciferin pair were measured using a calibrated luminometer. A reaction containing 0.5-5 nM of each luciferin, 3 mM ATP, 3 mM MgCl2 in 100 mM Tris-HCl (total volume of 200 µl) was placed into the luminometer and background signals were recorded. The reaction was then initiated by adding 20 µl of 0.5 […]
mM purified luciferases into the reaction tube and the bioluminescence signals were monitored until it decayed to the background level.

[7] = system: Pmluc-WT; assay: BL emission spectra of luciferase-luciferin reactions; assay type: biochemical, Pyrocoelia miyako; settings: 100 mM HEPES pH 8.0, 25 °C
Procedure: as §1, §2, §3
sphere-based multichannel spectrometer with a charge-coupled device (CCD) detector. […]

[8] = system: Pmluc-N230S (HepG2); assay: Sensitivity of live reporter cell detection (LOD of cell number); assay type: cell-based, human
[9] = system: Pmluc-N230S; assay: BL emission spectra of luciferase-luciferin reactions; assay type: biochemical, Pyrocoelia miyako; settings: 100 mM HEPES pH 8.0, 25 °C
Procedure: mM D-LH 2 analogues, 3 mM ATP, 6 mM MgCl2, and 10 µM luciferase in 0.2 ml of 100 mM HEPES-NaOH pH 8.0. The bioluminescence (BL) emission characteristics were recorded using a microplate reader in a BL mode (Thermo Scientific, Varioskan, LUX multimode). A digital single-lens reflex (DSLR) camera (Nikon D80, CCD sensor) with a 30-second exposure period was used to capture the BL images.
were selected to investigate their BL emission spectra with luciferases including Fluc, SLR, Pmluc-WT, Pmluc-N230S using an integrating sphere-based multichannel spectrometer with a charge-coupled device (CCD) detector.

[10] = system: Eluc; assay: Steady-state kinetics of luciferase reactions (luminometer); assay type: biochemical, Pyrearinus termitilluminans
Procedure: as §1, §2, §3
BL of the
as §4

[11] = system: SLR (HepG2); assay: Sensitivity of live reporter cell detection (LOD of cell number); assay type: cell-based, human
[12] = system: Pmluc-N230S; assay: Steady-state kinetics of luciferase reactions (luminometer); assay type: biochemical, Pyrocoelia miyako; settings: Pmluc-N230S, pH 8.0, 25 °C
Procedure: as §1, §2, §3
BL of the
as §4

[13] = system: SLR; assay: as above; assay type: biochemical, Phrixothrix hirtus
Procedure: as §1, §2, §3
BL of the
as §4

[14] = target: T2, Fluc; assay: as above; assay type: biochemical; settings: pH 8.0, 25 °C
Procedure: as §1, §2, §3
BL of the
as §4

[15] = system: SLR (HeLa); assay: Sensitivity of live reporter cell detection (LOD of cell number); assay type: cell-based, human
[16] = target: T2, Fluc; assay: Stopped-flow luminometry, single turnover light formation and decay; assay type: biochemical
Procedure: 1.5 Bioluminescence characterizations […]
One syringe was filled with a solution of 50 µM Fluc, 3 mM ATP, and 6 mM
in both syringes were mixed by a stopped-flow device and measured the light emission at 25 °C in triplicate. […]
2.8 Investigation of bioluminescence kinetics using stopped-flow luminometry
reactions were investigated using a stopped-flow spectrophotometer (employing a light-off mode for detecting the luminescence). One

[17] = concentration range tested 0-300

T2 sequence (P08659 whole entry): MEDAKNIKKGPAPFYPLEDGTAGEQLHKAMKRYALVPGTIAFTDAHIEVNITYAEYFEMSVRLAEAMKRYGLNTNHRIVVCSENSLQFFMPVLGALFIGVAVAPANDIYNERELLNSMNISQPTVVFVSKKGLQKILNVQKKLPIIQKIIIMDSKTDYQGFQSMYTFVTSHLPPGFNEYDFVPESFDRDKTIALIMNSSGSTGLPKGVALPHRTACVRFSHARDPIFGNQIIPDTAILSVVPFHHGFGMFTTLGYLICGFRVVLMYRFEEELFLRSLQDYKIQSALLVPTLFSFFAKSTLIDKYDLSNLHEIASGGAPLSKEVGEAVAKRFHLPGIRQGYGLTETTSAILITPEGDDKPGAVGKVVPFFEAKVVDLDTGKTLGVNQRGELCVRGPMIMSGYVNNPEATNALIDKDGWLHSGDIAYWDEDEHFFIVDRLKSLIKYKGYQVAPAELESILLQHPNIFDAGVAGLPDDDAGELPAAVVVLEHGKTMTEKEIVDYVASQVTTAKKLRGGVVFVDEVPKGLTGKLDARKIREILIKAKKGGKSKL
Fluc-ApCPP complex, sequence (P08659 whole entry, one chain of several): as the sequence (P08659 whole entry) above
T1 sequence (P08659 whole entry N50D/N119G/S548I/K549A/L550V): as the sequence (P08659 whole entry) above, with N50D, N119G, S548I, K549A, L550V counted along it

## O=C(O)[C@H]1CSC(c2nc3ccc(O)cc3s2)=N1 [Compound 2a, D-luciferin, reference compound]
[1]; [17]
  Substrate inhibition: > 4 µM
[1]; pH 8.0, 25 °C
  appKm: 0.1 µM
[2]; F0 (no filter)
  Limit of detection (LOD), cells: 1428 cells
[2]; F2 (red filter)
  Limit of detection (LOD), cells: 1185 cells
[3]
  N site: 0.32
[4]
  Absorption (λmax): 327 nm
  Fluorescence (λem): 543 nm and 523–560 nm
[5]
  Limit of detection (LOD) of expressed Fluc in crude cell lysates: 51.6 ng
[6]
  Quantum yield: 0.44 and 0.44 ± 0.04
[7]
  Bioluminescence wavelength (BLλ): 554 nm
[8]; F0 (no filter)
  Limit of detection (LOD), cells: 2010 cells
[8]; F2 (red filter)
  Limit of detection (LOD), cells: 1880 cells
[9]
  Bioluminescence wavelength (BLλ): 614 nm
[10]; [17]
  Substrate inhibition: > 1.0 M
[10]; pH 8.0, 25 °C
  appKm: 0.1 µM
[11]; F0 (no filter)
  Limit of detection (LOD), cells: 802 cells
[11]; F2 (red filter)
  Limit of detection (LOD), cells: 1071 cells
[12]
  appKm: 0.6 µM
[13]; [17]
  Substrate inhibition: > 4 µM
[13]; pH 8.0, 25 °C
  appKm: 0.5 µM
[14]
  appKm: 3.3 µM
[15]; F0 (no filter)
  Limit of detection (LOD), cells: 1352 cells
[15]; F2 (red filter)
  Limit of detection (LOD), cells: 1268 cells
[16]
  Observed rate constant (kobs) Light decay Faster phase: 1.57 and 1.57 ± 0.02 s^−1
  Observed rate constant (kobs) Light decay Slower phase: 0.29 and 0.29 ± 0.00 s^−1
  Observed rate constant (kobs) Light formation: 6.64 and 6.64 ± 0.05 s^−1

Source: PMC12668289 (RSC Chemical Biology, 2025)
